Tests used:
[1] = target: Protein kinase C beta type (Homo sapiens, UniProt P05771); assay: Inhibition of recombinant human PKCbeta2 (2 to end residues) using histone H1 as substrate incubated for 40 mins in presence of [gamma33P]ATP by radiometric scintillation counting analysis
[2] = target: Serine/threonine-protein kinase MAK (Homo sapiens, UniProt P20794); assay: Inhibition of recombinant human MAK using RRRFRPASPLRGP as substrate after 120 mins in presence of [gamma-33ATP] by radiometric scintillation counting analysis
[3] = target: Hepatocyte growth factor receptor (Homo sapiens, UniProt P08581, Y1230C); assay: Inhibition of recombinant human MET A1209G/V1290L/Y1248C triple mutant (974 to end residues) using KKKGQEEEYVFIE as substrate incubated for 40 mins in presence of [gamma-33ATP by radiometric scintillation counting analysis
[4] = target: Myosin light chain kinase, smooth muscle (Homo sapiens, UniProt Q15746); assay: Inhibition of recombinant human MLCK (1425 to 1771 residues) using […] as substrate incubated for 40 mins in presence of [gamma-33ATP by radiometric scintillation counting analysis
[5] = target: Protein kinase C delta type (Homo sapiens, UniProt Q05655); assay: Inhibition of recombinant human PKCdelta (2 to end residues) using ERMRPRKRQGSVRR as substrate incubated for 40 mins in presence of [gamma33P]ATP by radiometric scintillation counting analysis
Sequence of Protein kinase C delta type (Q05655 whole entry): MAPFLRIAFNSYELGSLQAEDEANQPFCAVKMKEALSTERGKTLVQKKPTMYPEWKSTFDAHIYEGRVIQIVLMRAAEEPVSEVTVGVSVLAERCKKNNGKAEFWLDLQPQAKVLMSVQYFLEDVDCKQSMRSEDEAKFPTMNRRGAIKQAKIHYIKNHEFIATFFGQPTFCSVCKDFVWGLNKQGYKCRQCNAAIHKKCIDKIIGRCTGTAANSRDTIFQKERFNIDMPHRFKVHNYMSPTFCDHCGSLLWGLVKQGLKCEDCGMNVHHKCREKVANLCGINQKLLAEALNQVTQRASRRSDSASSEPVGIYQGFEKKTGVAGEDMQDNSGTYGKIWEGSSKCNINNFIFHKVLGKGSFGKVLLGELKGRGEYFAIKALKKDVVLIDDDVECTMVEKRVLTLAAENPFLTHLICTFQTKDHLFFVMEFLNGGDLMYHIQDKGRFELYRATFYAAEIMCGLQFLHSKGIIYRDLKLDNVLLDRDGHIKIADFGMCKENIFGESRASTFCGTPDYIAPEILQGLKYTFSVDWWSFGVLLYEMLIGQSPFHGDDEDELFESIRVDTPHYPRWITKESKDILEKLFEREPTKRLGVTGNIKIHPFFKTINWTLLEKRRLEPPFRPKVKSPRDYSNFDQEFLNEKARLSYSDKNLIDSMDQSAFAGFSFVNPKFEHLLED

[6] = target: Epidermal growth factor receptor (Homo sapiens, UniProt P00533, L858R/T790M); assay: Inhibition of recombinant human EGFR T790M/L858R double mutant (696 to end residues) using poly(Glu, Tyr) 4:1 as substrate after 40 mins in presence of [gamma-33ATP] by radiometric scintillation counting analysis
Sequence of Epidermal growth factor receptor (P00533 25-1210 T790M/L858R limits assumed): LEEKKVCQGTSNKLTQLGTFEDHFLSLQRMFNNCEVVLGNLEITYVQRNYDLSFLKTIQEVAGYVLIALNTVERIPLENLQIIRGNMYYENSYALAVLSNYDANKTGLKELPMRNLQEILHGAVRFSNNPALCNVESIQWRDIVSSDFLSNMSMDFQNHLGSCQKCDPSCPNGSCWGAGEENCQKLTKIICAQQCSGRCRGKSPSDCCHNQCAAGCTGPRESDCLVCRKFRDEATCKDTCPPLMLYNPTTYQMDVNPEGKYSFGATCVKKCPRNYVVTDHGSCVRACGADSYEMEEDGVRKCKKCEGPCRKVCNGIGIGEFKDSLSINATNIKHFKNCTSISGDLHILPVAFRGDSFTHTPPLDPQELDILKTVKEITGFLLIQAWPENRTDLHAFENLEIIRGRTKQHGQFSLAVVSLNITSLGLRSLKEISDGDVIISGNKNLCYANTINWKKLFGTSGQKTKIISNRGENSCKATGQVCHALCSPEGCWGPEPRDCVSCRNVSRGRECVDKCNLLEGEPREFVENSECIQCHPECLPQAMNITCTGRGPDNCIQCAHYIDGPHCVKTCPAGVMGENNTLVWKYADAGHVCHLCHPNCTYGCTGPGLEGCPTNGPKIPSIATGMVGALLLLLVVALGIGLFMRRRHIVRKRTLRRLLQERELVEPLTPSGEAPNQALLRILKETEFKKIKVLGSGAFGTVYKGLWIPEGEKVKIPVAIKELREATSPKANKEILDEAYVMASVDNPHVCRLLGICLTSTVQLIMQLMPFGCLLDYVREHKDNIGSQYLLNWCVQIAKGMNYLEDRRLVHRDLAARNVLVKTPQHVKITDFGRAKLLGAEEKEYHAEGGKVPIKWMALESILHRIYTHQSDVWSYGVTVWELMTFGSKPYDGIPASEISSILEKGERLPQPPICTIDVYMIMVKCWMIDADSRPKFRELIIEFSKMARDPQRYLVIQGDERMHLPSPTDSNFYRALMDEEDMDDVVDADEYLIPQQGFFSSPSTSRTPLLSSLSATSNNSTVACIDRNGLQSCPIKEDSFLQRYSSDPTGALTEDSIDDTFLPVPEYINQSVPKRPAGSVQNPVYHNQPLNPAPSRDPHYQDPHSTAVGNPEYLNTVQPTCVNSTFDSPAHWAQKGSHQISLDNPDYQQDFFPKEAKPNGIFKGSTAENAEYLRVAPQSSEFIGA

Myotonin-protein kinase = Myotonin-protein kinase (Homo sapiens, UniProt Q09013); assay: Inhibition of recombinant human DMPK (1 to 549 residues) using KKSRGDYMTMQIG as substrate after 40 mins in presence of [gamma-33ATP] by radiometric scintillation counting analysis
[7] = target: Ribosomal protein S6 kinase alpha-2 (Homo sapiens, UniProt Q15349); assay: Inhibition of recombinant full length human Rsk3 using KKKNRTLSVA as substrate incubated for 40 mins in presence of [gamma33P]ATP by radiometric scintillation counting analysis
Sequence of Ribosomal protein S6 kinase alpha-2 (Q15349 whole entry): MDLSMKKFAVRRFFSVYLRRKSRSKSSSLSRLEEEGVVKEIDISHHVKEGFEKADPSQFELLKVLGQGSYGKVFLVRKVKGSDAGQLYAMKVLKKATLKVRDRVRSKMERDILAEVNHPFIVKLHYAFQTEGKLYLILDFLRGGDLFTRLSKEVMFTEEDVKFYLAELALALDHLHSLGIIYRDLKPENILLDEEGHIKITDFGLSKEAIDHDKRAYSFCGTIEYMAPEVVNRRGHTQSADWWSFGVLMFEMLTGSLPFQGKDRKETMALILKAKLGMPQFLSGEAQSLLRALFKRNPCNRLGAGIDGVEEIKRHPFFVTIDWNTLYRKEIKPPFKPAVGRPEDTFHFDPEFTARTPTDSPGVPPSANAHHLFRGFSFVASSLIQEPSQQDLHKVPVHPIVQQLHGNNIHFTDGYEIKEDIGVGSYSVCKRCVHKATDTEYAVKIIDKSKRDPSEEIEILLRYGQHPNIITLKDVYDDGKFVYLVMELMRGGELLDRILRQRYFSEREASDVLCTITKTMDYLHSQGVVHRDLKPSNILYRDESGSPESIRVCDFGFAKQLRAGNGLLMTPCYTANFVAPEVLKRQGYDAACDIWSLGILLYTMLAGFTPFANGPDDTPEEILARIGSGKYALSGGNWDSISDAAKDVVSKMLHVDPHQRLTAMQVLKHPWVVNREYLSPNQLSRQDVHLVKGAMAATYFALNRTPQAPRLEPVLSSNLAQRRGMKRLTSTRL

[8] = target: Testis-specific serine/threonine-protein kinase 2 (Homo sapiens, UniProt Q96PF2); assay: Inhibition of recombinant full-length human TSSK2 using KKKVSRSGLYRSP as substrate incubated for 40 mins in presence of [gamma33P]ATP by radiometric scintillation counting analysis
Sequence of Testis-specific serine/threonine-protein kinase 2 (Q96PF2 whole entry): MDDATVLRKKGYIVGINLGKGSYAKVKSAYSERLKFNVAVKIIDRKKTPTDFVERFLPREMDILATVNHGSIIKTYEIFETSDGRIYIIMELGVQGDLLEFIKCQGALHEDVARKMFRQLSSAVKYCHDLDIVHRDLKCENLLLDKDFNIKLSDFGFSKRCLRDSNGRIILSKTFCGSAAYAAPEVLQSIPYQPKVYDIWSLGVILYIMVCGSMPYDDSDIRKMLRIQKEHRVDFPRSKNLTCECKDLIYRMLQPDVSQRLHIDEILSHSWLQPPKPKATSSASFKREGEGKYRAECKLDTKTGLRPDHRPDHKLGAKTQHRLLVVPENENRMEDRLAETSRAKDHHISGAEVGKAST

[9] = target: Cyclin-dependent kinase 5/CDK5 activator 1 (Homo sapiens, UniProt Q00535); assay: Inhibition of recombinant full length human CDK5/p25 using histone H1 as substrate incubated for 40 mins in presence of [gamma-33ATP] by radiometric scintillation counting analysis; assay type: protein-complex assay
[10] = target: Tyrosine-protein kinase SYK (Homo sapiens, UniProt P43405); assay: Inhibition of recombinant human full length SYK using poly(Glu, Tyr) 4:1 as substrate incubated for 40 mins in presence of [gamma33P]ATP by radiometric scintillation counting analysis
[11] = target: Homeodomain-interacting protein kinase 3 (Homo sapiens, UniProt Q9H422); assay: Inhibition of human recombinant HIPK3 (161 to 562 residues) using myelin basic protein as substrate after 40 mins by [gamma-33ATP] radiometric assay
[12] = target: Testis-specific serine/threonine-protein kinase 3 (Homo sapiens, UniProt Q96PN8); assay: Inhibition of recombinant full-length human TSSK3 using AMARAASAAALAR as substrate incubated for 40 mins in presence of [gamma33P]ATP by radiometric scintillation counting analysis
[13] = target: Tyrosine-protein kinase Yes (Homo sapiens, UniProt P07947); assay: Inhibition of recombinant full-length human Yes using poly(Glu, Tyr) 4:1 as substrate incubated for 40 mins in presence of [gamma33P]ATP by radiometric scintillation counting analysis
[14] = target: Wee1-like protein kinase 2 (Homo sapiens, UniProt P0C1S8); assay: Inhibition of recombinant full length human WEE1b using LSNLYHQGKFLQTFCGSPLYRRR as substrate incubated for 120 mins in presence of [gamma33P]ATP by radiometric scintillation counting analysis
[15] = target: RAF proto-oncogene serine/threonine-protein kinase (Homo sapiens, UniProt P04049, Y340D/Y341D); assay: Inhibition of recombinant human C-Raf Y340D/Y341D double mutant (306 to end residues) using poly(Glu, Tyr) 4:1 as substrate incubated 40 mins in presence of [gamma-33ATP] by radiometric scintillation counting analysis
Sequence of RAF proto-oncogene serine/threonine-protein kinase (P04049 whole entry Y340D/Y341D): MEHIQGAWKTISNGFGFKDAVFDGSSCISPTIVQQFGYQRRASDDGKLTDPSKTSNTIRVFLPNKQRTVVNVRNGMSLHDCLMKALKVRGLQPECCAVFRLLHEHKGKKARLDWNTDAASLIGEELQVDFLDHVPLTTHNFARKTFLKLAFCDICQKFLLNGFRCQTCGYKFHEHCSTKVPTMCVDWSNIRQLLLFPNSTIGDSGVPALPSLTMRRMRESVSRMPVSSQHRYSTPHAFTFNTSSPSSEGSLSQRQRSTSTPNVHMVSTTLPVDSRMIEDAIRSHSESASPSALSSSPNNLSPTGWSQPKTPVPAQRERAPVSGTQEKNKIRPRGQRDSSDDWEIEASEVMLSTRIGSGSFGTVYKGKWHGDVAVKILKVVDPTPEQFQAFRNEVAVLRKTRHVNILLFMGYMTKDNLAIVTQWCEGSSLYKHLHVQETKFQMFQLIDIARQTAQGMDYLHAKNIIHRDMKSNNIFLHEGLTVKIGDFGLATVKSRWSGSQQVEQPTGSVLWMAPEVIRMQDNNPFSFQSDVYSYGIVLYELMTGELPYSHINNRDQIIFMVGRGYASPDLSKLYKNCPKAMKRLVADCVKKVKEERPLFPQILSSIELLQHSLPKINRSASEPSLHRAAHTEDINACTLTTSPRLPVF

[16] = Inhibition of recombinant human MAPKAPK2 A399G mutant (46 to end residues) using KKLNRTLSVA as substrate incubated for 40 mins in presence of [gamma-33ATP by radiometric scintillation counting analysis
[17] = target: Homeodomain-interacting protein kinase 1 (Homo sapiens, UniProt Q86Z02); assay: Inhibition of human recombinant HIPK1 (158 to 555 residues) using myelin basic protein as substrate after 40 mins by [gamma-33ATP] radiometric assay
[18] = target: Serine/threonine-protein kinase Nek7 (Homo sapiens, UniProt Q8TDX7); assay: Inhibition of recombinant human NEK7 (2 to end residues) using FLAKSFGSPNRAYKK as substrate measured after 40 mins in presence of [gamma33P]ATP by radiometric scintillation counting analysis
Sequence of Serine/threonine-protein kinase Nek7 (Q8TDX7 whole entry, the tested form may be a part): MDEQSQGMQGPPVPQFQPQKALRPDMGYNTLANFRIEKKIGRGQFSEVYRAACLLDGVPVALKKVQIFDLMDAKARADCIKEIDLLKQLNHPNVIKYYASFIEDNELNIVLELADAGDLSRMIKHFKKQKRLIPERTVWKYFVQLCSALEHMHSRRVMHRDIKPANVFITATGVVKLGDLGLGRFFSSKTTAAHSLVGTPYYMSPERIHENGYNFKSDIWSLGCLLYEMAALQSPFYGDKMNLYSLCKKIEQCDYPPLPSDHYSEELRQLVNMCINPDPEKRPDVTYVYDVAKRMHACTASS

[19] = target: Serine/threonine-protein kinase TAO1 (Homo sapiens, UniProt Q7L7X3); assay: Inhibition of recombinant human TAO1 (1 to 327 residues) using myelin basic protein as substrate incubated for 40 mins in presence of [gamma33P]ATP by radiometric scintillation counting analysis
[20] = target: Insulin receptor-related protein (Homo sapiens, UniProt P14616); assay: Inhibition of human recombinant IRR (943 to 1266 residues) using myelin basic protein as substrate after 40 mins by [gamma-33ATP] by radiometric scintillation counting analysis
[21] = Inhibition of recombinant full length human PRAK R291E mutant using KKLRRTLSVA as substrate incubated for 40 mins in presence of [gamma33P]ATP by radiometric scintillation counting analysis
[22] = target: Calcium/calmodulin-dependent protein kinase type II subunit delta (Homo sapiens, UniProt Q13557); assay: Inhibition of recombinant full length human CaMK2delta using calmodulin as substrate incubated for 40 mins in presence of [gamma-33ATP] by radiometric scintillation counting analysis
[23] = target: Bone morphogenetic protein receptor type-2 (Homo sapiens, UniProt Q13873); assay: Inhibition of human recombinant BMPR2 (172 to 734 residues) using myelin basic protein as substrate incubated for 120 mins in presence of [gamma-33ATP] by radiometric scintillation counting analysis
[24] = target: Serine/threonine-protein kinase N2 (Homo sapiens, UniProt Q16513); assay: Inhibition of recombinant human PRK2 (501 to end residues) using AKRRRLSSLRA as substrate incubated for 40 mins in presence of [gamma33P]ATP by radiometric scintillation counting analysis
Sequence of Serine/threonine-protein kinase N2 (Q16513 whole entry): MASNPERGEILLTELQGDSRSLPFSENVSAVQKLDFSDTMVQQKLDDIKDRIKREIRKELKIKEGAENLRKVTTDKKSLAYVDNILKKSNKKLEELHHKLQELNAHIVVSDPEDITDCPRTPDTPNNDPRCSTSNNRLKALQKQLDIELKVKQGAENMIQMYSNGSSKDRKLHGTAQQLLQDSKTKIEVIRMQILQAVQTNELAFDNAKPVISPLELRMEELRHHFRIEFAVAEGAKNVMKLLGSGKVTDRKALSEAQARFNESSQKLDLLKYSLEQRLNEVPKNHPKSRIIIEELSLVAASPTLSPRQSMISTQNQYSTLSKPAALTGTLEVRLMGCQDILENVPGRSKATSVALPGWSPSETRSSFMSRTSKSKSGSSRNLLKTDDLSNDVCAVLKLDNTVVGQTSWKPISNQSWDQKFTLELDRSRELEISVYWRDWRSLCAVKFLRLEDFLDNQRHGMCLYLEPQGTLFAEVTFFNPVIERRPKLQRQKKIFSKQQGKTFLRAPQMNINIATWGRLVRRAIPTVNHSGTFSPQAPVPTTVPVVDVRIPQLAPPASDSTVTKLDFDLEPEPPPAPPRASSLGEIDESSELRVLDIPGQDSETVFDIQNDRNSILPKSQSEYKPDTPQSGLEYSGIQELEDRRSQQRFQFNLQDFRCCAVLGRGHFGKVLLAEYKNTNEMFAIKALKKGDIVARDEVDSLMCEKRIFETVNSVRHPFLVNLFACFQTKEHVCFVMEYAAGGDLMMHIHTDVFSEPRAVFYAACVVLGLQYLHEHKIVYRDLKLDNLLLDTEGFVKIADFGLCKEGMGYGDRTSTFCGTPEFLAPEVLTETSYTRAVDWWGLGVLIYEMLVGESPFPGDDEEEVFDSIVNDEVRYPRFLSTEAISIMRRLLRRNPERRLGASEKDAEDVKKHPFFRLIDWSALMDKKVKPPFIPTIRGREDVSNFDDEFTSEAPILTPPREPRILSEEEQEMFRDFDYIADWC

Measured: IC50

CN(C)c1ccc(C(=O)Nc2cccc(NC(=O)COc3ccc4c(=O)ccoc4c3)c2)cc1
> 10 µM: [1] | [2] | [3] | [4] | [5] | [6] | Myotonin-protein kinase | [7] | [8] | [9] | [10] | [11] | [12] | [13] | [14] | [15] | [16] | [17] | [18] | [19] | [20] | [21] | [22] | [23] | [24]

Reference: ChEMBL document CHEMBL4376834, “Discovery of 4H-Chromen-4-one Derivatives as a New Class of Selective Rho Kinase (ROCK) Inhibitors, which Showed Potent Activity in ex Vivo Diabetic Retinopathy Models” (J Med Chem, 2019)
